Data as given in patent US10179771B2 (GALAPAGOS NV, priority 2014, dated 2019).

Biological target: T1, Recombinant human JAK1 catalytic domain (Homo sapiens, UniProt P23458)
T1 construct: Recombinant human JAK1 (catalytic domain, amino acids 866-1154; catalog number PV4774); purchased Invitrogen PV4774
Experiment: JAK1 inhibition assay (polyGT substrate / Ulight-JAK1 peptide assay)
Format: biochemical
Conditions: Comparative Compounds (Table VI)
Procedure: Recombinant human JAK1 catalytic domain (amino acids 850-1154; catalog number 08-144) was purchased from Carna Biosciences. 10 ng of JAK1 is incubated with 12.5 μg polyGT substrate (Sigma catalog number P0275) in kinase reaction buffer (15 mM Tris-HCl pH 7.5, 1 mM DTT, 0.01% Tween-20, 10 mM MgCl2, 2 μM non-radioactive ATP, 0.25 ρCi ^33P-gamma-ATP (GE Healthcare, catalog number AH9968) final concentrations) with or without 5 μL containing test compound or vehicle (DMSO, 1% final concentration), in a total volume of 25 μL, in a polypropylene 96-well plate (Greiner, V-bottom). After 45 min at 30° C., reactions are stopped by adding of 25 μL/well of 150 mM phosphoric acid. All of the terminated kinase reaction is transferred to prewashed (75 mM phosphoric acid) 96 well filter plates (Perkin Elmer catalog number 6005177) using a cell harvester (Perkin Elmer). Plates are washed 6 times with 300 μL per well of a 75 mM phosphoric acid solution and the bottom of the plates is sealed. 40 μL/well of Microscint-20 is added, the top of the plates is sealed and readout is performed using the Topcount (Perkin Elmer). Kinase activity is calculated by subtracting counts per min (cpm) obtained in the presence of a positive control inhibitor (10 μM staurosporine) from cpm obtained in the presence of vehicle. The ability of a test compound to inhibit this activity is determined as:
[formula] • RFU test compound=RFU determined for sample with test compound present • RFU control=RFU determined for sample with positive control inhibitor • RFU vehicle=RFU determined in the presence of vehicle
Dose dilution series are prepared for the compounds enabling the testing of dose-response effects in the JAK1 assay and the calculation of the IC50 for each compound. Each compound is routinely tested at concentration of 20 μM followed by a 1/3 serial dilution, 8 points (20 μM-6.67 μM-2.22 μM-740 nM-247 nM-82 nM-27 nM-9 nM) in a final concentration of 1% DMSO. When potency of compound series increased, more dilutions are prepared and/or the top concentration was lowered (e.g. 5 μM, 1 μM).
Recombinant human JAK1 (catalytic domain, amino acids 866-1154; catalog number PV4774) was purchased from Invitrogen. 1 ng of JAK1 was incubated with 20 nM Ulight-JAK1 (tyr1023) peptide (Perkin Elmer catalog number TRF0121) in kinase reaction buffer (25 mM MOPS pH6.8, 0.01% Brij-35, 5 mM MgCl2, 2 mM DTT, 7 μM ATP) with or without 4 μL containing test compound or vehicle (DMSO, 1% final concentration), in a total volume of 20 μL, in a white 384 Opti plate (Perkin Elmer, catalog number 6007290). After 60 min at room temperature, reactions were stopped by adding 20 μL/well of detection mixture (1× detection buffer (Perkin Elmer, catalog number CR97-100C), 0.5 nM Europium-anti-phosphotyrosine (PT66) (Perkin Elmer, catalog number AD0068), 10 mM EDTA). Readout is performed using the Envision with excitation at 320 nm and measuring emission at 615 nm (Perkin Elmer). Kinase activity was calculated by subtracting relative fluorescence units (RFU) obtained in the presence of a positive control inhibitor (10 μM staurosporine) from RFU obtained in the presence of vehicle. The ability of a test compound to inhibit this activity was determined as: Percentage inhibition=((RFU determined for sample with test compound present−RFU determined for sample with positive control inhibitor) divided by (RFU determined in the presence of vehicle−RFU determined for sample with positive control inhibitor))*100.
Dose dilution series were prepared for the compounds enabling the testing of dose-response effects in the JAK1 assay and the calculation of the IC50 for the compound. Each compound is routinely tested at concentration of 20 μM followed by a 1/5 serial dilution, 10 points in a final concentration of 1% DMSO. When potency of compound series increases, more dilutions are prepared and/or the top concentration are lowered (e.g. 5 μM, 1 μM). […]

T1 sequence (P23458 866-1154): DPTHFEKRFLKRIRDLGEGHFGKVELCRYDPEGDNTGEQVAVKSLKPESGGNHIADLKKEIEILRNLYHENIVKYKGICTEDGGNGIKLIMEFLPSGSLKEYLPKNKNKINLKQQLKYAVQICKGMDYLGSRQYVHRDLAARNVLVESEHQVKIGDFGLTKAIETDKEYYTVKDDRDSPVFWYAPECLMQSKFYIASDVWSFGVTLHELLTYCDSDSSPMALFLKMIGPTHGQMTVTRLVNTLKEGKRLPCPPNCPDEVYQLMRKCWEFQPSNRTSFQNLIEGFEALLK

IC50	Structure (SMILES)
> 500 nM	CN(c1cc2c(cn1)ncn2C)c1ccc(C#N)cc1F [D, reference compound]

Same assay, conditions: Illustrative Compounds of the invention (Table V)

Structure (SMILES)	IC50
Cc1cc(C#N)ncc1Oc1cc(NC(=O)N2CC(O)C2)c2ncn(C)c2c1 [Cpd 36, N-[6-[(6-cyano-4-methyl-3-pyridyl)oxy]-1-methyl-benzimidazol-4-yl]-3-hydroxy-azetidine-1-carboxamide]	> 500 nM
CCc1cc(C#N)ccc1Oc1cc(NC(=O)[C@H]2C[C@H]2F)c2ncn(C)c2c1 [Cpd 10, (1R,2R)-N-[6-(4-cyano-2-ethyl-phenoxy)-1-methyl-benzimidazol-4-yl]-2-fluoro-cyclopropanecarboxamide]	0.1 to 50 nM
CCc1cc(C#N)cc(F)c1Nc1cc(NC(=O)C2CC2)c2ncn(C)c2c1 [Cpd 2, N-(6-(4-cyano-2-ethyl-6-fluorophenylamino)-1-methyl-1H-benzo[d]imidazol-4-yl)cyclopropanecarboxamide]	0.1 to 50 nM
Cc1cc(C#N)nc(F)c1N(C)c1cc(NC(=O)[C@H]2C[C@H]2F)c2ncn(C)c2c1 [Cpd 21, (1R,2R)-N-[6-[(6-cyano-2-fluoro-4-methyl-3-pyridyl)-methyl-amino]-1-methyl-benzimidazol-4-yl]-2-fluoro-cyclopropanecarboxamide]	0.1 to 50 nM
CCS(=O)(=O)c1ccc(N(C)c2cc(NC(=O)[C@H]3C[C@H]3F)c3ncn(C)c3c2)c(C)c1 [Cpd 27, (1R,2R)-N-[6-(4-ethylsulfonyl-N,2-dimethyl-anilino)-1-methyl-benzimidazol-4-yl]-2-fluoro-cyclopropanecarboxamide]	0.1 to 50 nM
Cc1cc(S(C)(=O)=O)ccc1N(C)c1cc(NC(=O)[C@H]2C[C@H]2F)c2ncn(C)c2c1 [Cpd 26, (1R,2R)-N-[6-(N,2-dimethyl-4-methylsulfonyl-anilino)-1-methyl-benzimidazol-4-yl]-2-fluoro-cyclopropanecarboxamide]	0.1 to 50 nM
Cc1cc(C#N)ncc1Oc1cc(NC(=O)N2CCOCC2)c2ncn(C)c2c1 [Cpd 37, N-[6-[(6-cyano-4-methyl-3-pyridyl)oxy]-1-methyl-benzimidazol-4-yl]morpholine-4-carboxamide]	> 500 nM
Cc1cc(S(C)(=O)=O)cc(F)c1N(C)c1cc(NC(=O)[C@H]2C[C@H]2F)c2ncn(C)c2c1 [Cpd 16, (1R,2R)-2-fluoro-N-[6-(2-fluoro-N,6-dimethyl-4-methylsulfonyl-anilino)-1-methyl-benzimidazol-4-yl]cyclopropanecarboxamide]	0.1 to 50 nM
CN(c1cc(NC(=O)[C@H]2C[C@H]2F)c2ncn(C)c2c1)c1c(F)cc(C#N)cc1Cl [Cpd 11, (1R,2R)-N-[6-(2-chloro-4-cyano-6-fluoro-N-methyl-anilino)-1-methyl-benzimidazol-4-yl]-2-fluoro-cyclopropanecarboxamide]	0.1 to 50 nM

Now from value to molecule:

IC50	Structure (SMILES)
0.1 to 50 nM	CCc1cc(S(C)(=O)=O)ncc1N(C)c1cc(NC(=O)C2CC2)c2ncn(C)c2c1 [Cpd 18, N-[6-[(4-ethyl-6-methylsulfonyl-3-pyridyl)-methyl-amino]-1-methyl-benzimidazol-4-yl]cyclopropanecarboxamide]
0.1 to 50 nM	CCc1cc(C#N)ncc1N(C)c1cc(NC(=O)OC)c2ncn(C)c2c1 [Cpd 4, methyl 6-((6-cyano-4-ethylpyridin-3-yl)(methyl)amino)-1-methyl-1H-benzo[d]imidazol-4-ylcarbamate]
0.1 to 50 nM	CCc1cc(C#N)ncc1Oc1cc(NC(=O)[C@H]2C[C@H]2F)c2ncn(C)c2c1 [Cpd 6, (1R,2R)-N-[6-[(6-cyano-4-ethyl-3-pyridyl)oxy]-1-methyl-benzimidazol-4-yl]-2-fluoro-cyclopropanecarboxamide]
0.1 to 50 nM	CCc1cc(C#N)ncc1N(C)c1cc(NC(=O)[C@H]2C[C@H]2F)c2ncn(C)c2c1 [Cpd 8, (1R,2R)-N-(6-((6-cyano-4-ethylpyridin-3-yl)(methyl)amino)-1-methyl-1H-benzo[d]imidazol-4-yl)-2-fluorocyclopropanecarboxamide]
0.1 to 50 nM	CNC(=O)Nc1cc(Oc2cnc(C#N)cc2C)cc2c1ncn2C
